Counter-ions that a name gives are not always drawn.
Key:
[1] = tested on: ENR+CD organoids (ISC to Paneth cell differentiation); assay: Primary screen: basal (non-stimulated) lysozyme secretion LYZ.NS, 2.5-D 384-well ENR+CD organoid differentiation; type: cell-based, mouse
From the text: (§1) High-throughput screening.

[2] = tested on: ENR+CD organoids; assay: Primary screen: ATP (CellTiter-Glo 3D, CTG) cell number/viability, 2.5-D 384-well ENR+CD organoids; settings: primary screen; for Z.CTG: standard z score;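 on all read-outs here: compounds given at plating and again on day 3 over a 6-day differentiation from ENR+CV stem-cell-enriched precursors, ATP measured on day 6, plate median as control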
[3] = tested on: ENR+CD organoids (ISC to Paneth cell differentiation); assay: Primary screen: CCh-stimulated lysozyme secretion LYZ.S, 2.5-D 384-well ENR+CD organoid differentiation; type: cell-based, mouse; settings: primary screen
From the text: as §1

[4] = primary screen, standard z score, dose 0.08 uM
[5] = primary screen, standard z score, dose 0.40 uM
[6] = primary screen, standard z score, dose 2.00 uM
[7] = primary screen, standard z score, dose 10.00 uM
[8] = dose 0.08 uM, FC relative to plate median
[9] = dose 0.40 uM, FC relative to plate median
[10] = dose 2.00 uM, FC relative to plate median
[11] = dose 10.00 uM, FC relative to plate median

SMILES	Dose.FC.LYZ.NS ([1]; primary screen, dose 0.08 uM)	Dose.FC.LYZ.NS ([1]; primary screen, dose 0.40 uM)	Dose.FC.LYZ.NS ([1]; primary screen, dose 2.00 uM)	Dose.FC.LYZ.NS ([1]; primary screen, dose 10.00 uM)	Dose.FC.CTG ([2]; dose 0.08 uM)	Dose.FC.CTG ([2]; dose 0.40 uM)	Dose.FC.CTG ([2]; dose 2.00 uM)	Dose.FC.CTG ([2]; dose 10.00 uM)	Dose.FC.LYZ.S ([3]; dose 0.08 uM)	Dose.FC.LYZ.S ([3]; dose 0.40 uM)	Dose.FC.LYZ.S ([3]; dose 2.00 uM)	Dose.FC.LYZ.S ([3]; dose 10.00 uM)	Z.LYZ.NS (standard z score) ([1]; primary screen, dose 0.08 uM)	Z.LYZ.NS (standard z score) ([1]; primary screen, dose 0.40 uM)	Z.LYZ.NS (standard z score) ([1]; primary screen, dose 2.00 uM)	Z.LYZ.NS (standard z score) ([1]; primary screen, dose 10.00 uM)	Z.CTG (standard z score) ([2]; dose 0.08 uM)	Z.CTG (standard z score) ([2]; dose 0.40 uM)	Z.CTG (standard z score) ([2]; dose 2.00 uM)	Z.CTG (standard z score) ([2]; dose 10.00 uM)	other results
O=C(Nc1cccc(Nc2ncc(Br)c(NCCc3cnc[nH]3)n2)c1)N1CCCC1 [BX-912]	0.010 log2 fold change	0.017 log2 fold change	−0.089 log2 fold change	−0.196 log2 fold change	0.043 log2 fold change	0.054 log2 fold change	−0.246 log2 fold change	−0.397 log2 fold change	0.038 log2 fold change	0.042 log2 fold change	−0.161 log2 fold change	−0.272 log2 fold change									Z.LYZ.NS [1, 4]: 0.090; Z.LYZ.NS [1, 5]: 0.151; Z.LYZ.NS [1, 6]: −0.771; Z.LYZ.NS [1, 7]: −1.704; Z.CTG ([2]; dose 0.08 uM): 0.103; Z.CTG ([2]; dose 0.40 uM): 0.129; Z.CTG ([2]; dose 2.00 uM): −0.587; Z.CTG ([2]; dose 10.00 uM): −0.949
Oc1nc(-c2ccc(C(F)(F)F)cc2)nc2c1CSCC2 [XAV-939]	0.058 log2 fold change	0.020 log2 fold change	−0.044 log2 fold change	−0.131 log2 fold change	−0.332 log2 fold change	−0.027 log2 fold change	−0.355 log2 fold change	−0.899 log2 fold change	0.074 log2 fold change	0.085 log2 fold change	−0.068 log2 fold change	−0.231 log2 fold change	0.505	0.177	−0.386	−1.142					
C[C@]1(c2nc3c(C(N)=O)cccc3[nH]2)CCCN1 [Veliparib (ABT-888)]	0.075 log2 fold change	0.139 log2 fold change	0.023 log2 fold change	−0.062 log2 fold change	0.128 log2 fold change	0.055 log2 fold change	−0.024 log2 fold change	−0.218 log2 fold change	0.105 log2 fold change	0.179 log2 fold change	−0.016 log2 fold change	−0.136 log2 fold change	0.649	1.211	0.203	−0.537	0.307	0.132	−0.057	−0.521	
O=C(/C=C\n1cnc(-c2cc(C(F)(F)F)cc(C(F)(F)F)c2)n1)N1CC(F)(F)C1 [KPT-276]													0.492	0.746	−1.947	−2.230	0.399	−0.104	−0.986	−1.680	Dose.FC.LYZ.NS (log2 fold change) ([1]; primary screen, dose 0.08 uM): 0.056; Dose.FC.LYZ.NS (log2 fold change) ([1]; primary screen, dose 0.40 uM): 0.086; Dose.FC.LYZ.NS (log2 fold change) ([1]; primary screen, dose 2.00 uM): −0.224; Dose.FC.LYZ.NS (log2 fold change) ([1]; primary screen, dose 10.00 uM): −0.256; Dose.FC.CTG (log2 fold change) ([2]; dose 0.08 uM): 0.167; Dose.FC.CTG (log2 fold change) ([2]; dose 0.40 uM): −0.044; Dose.FC.CTG (log2 fold change) ([2]; dose 2.00 uM): −0.413; Dose.FC.CTG (log2 fold change) ([2]; dose 10.00 uM): −0.703; Dose.FC.LYZ.S (log2 fold change) ([3]; dose 0.08 uM): 0.133; Dose.FC.LYZ.S (log2 fold change) ([3]; dose 0.40 uM): 0.148; Dose.FC.LYZ.S (log2 fold change) ([3]; dose 2.00 uM): −0.327; Dose.FC.LYZ.S (log2 fold change) ([3]; dose 10.00 uM): −0.361
CCc1nc(N)nc(N)c1-c1ccc(Cl)cc1 [Pyrimethamine]																					Dose.FC.LYZ.NS ([1]; primary screen, dose 0.08 uM, FC relative to plate median): −0.005 log2 fold change; Z.LYZ.NS ([1]; primary screen, dose 0.08 uM, standard z score): −0.041; Dose.FC.LYZ.NS ([1]; primary screen, dose 0.40 uM, FC relative to plate median): −0.018 log2 fold change; Z.LYZ.NS ([1]; primary screen, dose 0.40 uM, standard z score): −0.160; Dose.FC.LYZ.NS ([1]; primary screen, dose 2.00 uM, FC relative to plate median): −0.144 log2 fold change; Z.LYZ.NS ([1]; primary screen, dose 2.00 uM, standard z score): −1.255; Dose.FC.LYZ.NS ([1]; primary screen, dose 10.00 uM, FC relative to plate median): −0.138 log2 fold change; Z.LYZ.NS ([1]; primary screen, dose 10.00 uM, standard z score): −1.199; Dose.FC.CTG [2, 8]: 0.007 log2 fold change; Dose.FC.CTG [2, 9]: −0.259 log2 fold change; Dose.FC.CTG [2, 10]: −0.416 log2 fold change; Dose.FC.CTG [2, 11]: −0.620 log2 fold change; Dose.FC.LYZ.S [3, 8]: 0.042 log2 fold change; Dose.FC.LYZ.S [3, 9]: −0.026 log2 fold change; Dose.FC.LYZ.S [3, 10]: −0.162 log2 fold change; Dose.FC.LYZ.S [3, 11]: −0.282 log2 fold change
COc1cc(-c2ncn(/C=C\C(=O)OC(C)C)n2)cc(C(F)(F)F)c1 [KPT-185]													−0.049	0.846	−1.820	−0.744	0.277	0.248	−2.377	−2.041	Dose.FC.LYZ.NS (log2 fold change) ([1]; primary screen, dose 0.08 uM): −0.006; Dose.FC.LYZ.NS (log2 fold change) ([1]; primary screen, dose 0.40 uM): 0.097; Dose.FC.LYZ.NS (log2 fold change) ([1]; primary screen, dose 2.00 uM): −0.209; Dose.FC.LYZ.NS (log2 fold change) ([1]; primary screen, dose 10.00 uM): −0.085; Dose.FC.CTG (log2 fold change) ([2]; dose 0.08 uM): 0.116; Dose.FC.CTG (log2 fold change) ([2]; dose 0.40 uM): 0.104; Dose.FC.CTG (log2 fold change) ([2]; dose 2.00 uM): −0.995; Dose.FC.CTG (log2 fold change) ([2]; dose 10.00 uM): −0.855; Dose.FC.LYZ.S (log2 fold change) ([3]; dose 0.08 uM): −0.015; Dose.FC.LYZ.S (log2 fold change) ([3]; dose 0.40 uM): 0.220; Dose.FC.LYZ.S (log2 fold change) ([3]; dose 2.00 uM): −0.322; Dose.FC.LYZ.S (log2 fold change) ([3]; dose 10.00 uM): −0.153
O=C(NC(NC(=S)Nc1ccc(F)c([N+](=O)[O-])c1)C(Cl)(Cl)Cl)C(c1ccccc1)c1ccccc1 (stereo not shown) [CGK733]	0.099 log2 fold change	−0.026 log2 fold change	−0.099 log2 fold change	−0.122 log2 fold change	−0.362 log2 fold change	−0.093 log2 fold change	−0.244 log2 fold change	−0.478 log2 fold change	0.008 log2 fold change	−0.018 log2 fold change	−0.125 log2 fold change	−0.230 log2 fold change									Z.LYZ.NS [1, 4]: 0.863; Z.LYZ.NS [1, 5]: −0.222; Z.LYZ.NS [1, 6]: −0.865; Z.LYZ.NS [1, 7]: −1.063; Z.CTG ([2]; dose 0.08 uM): −0.864; Z.CTG ([2]; dose 0.40 uM): −0.221; Z.CTG ([2]; dose 2.00 uM): −0.582; Z.CTG ([2]; dose 10.00 uM): −1.143
CC(C)OC(=O)OCOP(=O)(CO[C@H](C)Cn1cnc2c(N)ncnc21)OCOC(=O)OC(C)C [Tenofovir Disoproxil Fumarate]	0.055 log2 fold change	−0.051 log2 fold change	−0.079 log2 fold change	−0.185 log2 fold change	0.072 log2 fold change	−0.002 log2 fold change	−0.158 log2 fold change	−0.433 log2 fold change	0.208 log2 fold change	0.086 log2 fold change	−0.065 log2 fold change	−0.267 log2 fold change	0.475	−0.442	−0.689	−1.614					

From US20220323406A1, “METHODS AND COMPOSITIONS FOR DIFFERENTIATING STEM CELLS” (Massachusetts Institute of Technology, priority 2019, published 2022)
